Data set [1] addresses T1, Candida antarctica lipase (Moesziomyces antarcticus, UniProt P41365). Briefly: Candida antarctica lipase activity based on temperature (release of para-nitrophenol, colorimetry at 414 nm). The class given is biochemical. The settings on record: PIPES buffer 0.1 M pH 7, 40 minutes. As for the experimental part:
(§1) The hydrolytic activity of the Candida antarctica lipase was tested on 2 substrates: 2-hydroxy-4-p-nitrophenyl-butyl-decanoate and p-nitro-phenylbutyrate. The lipase activity is detected after hydrolysis of ester functions of substrates that produce the release (direct or indirect) of yellow-colored para-nitrophenol that is measured by colorimetry at 414 nm. The tests were carried out at different temperatures and pH.
(§2) The stock solutions of 2-hydroxy-4-p-nitrophenyl-butyl-decanoate and para-nitrophenolbutyrate (SIGMA) are prepared at the concentration of 20 mmol respectively in acetonitrile and isopropanol. The concentration of lipase B that is used is 0.01 mg/ml in a phosphate buffer (100 mmol, pH 7).
(§3) 74 μl of PIPES buffer (100 mmol, pH 7) and 10 μl of a lipase solution at 0.01 mg/ml are added to 13.6 μmol of 2-hydroxy-4-p-nitrophenyl-butyl-decanoate. The reaction is incubated in a water bath for 40 minutes at 50, 60, 70, 80 and 95° C. The samples are then removed from the water bath. Then, 40 μl of NaIO4 (100 mmol) and 4 μl of BSA (50 mg/ml) are added to the mixture. The pH of the solution is then adjusted to 10 by adding 40 μl of an Na2CO3 solution at 0.2 M. The para-nitrophenol that is released is then measured with a colorimeter at 414 nm.
(§4) 74 μl of PIPES buffer (100 mmol, pH 7) and 10 μl of a lipase solution at 0.01 mg/ml are added to 13.6 μmol of para-nitrophenylbutyrate. The reaction is incubated in a water bath for 40 minutes at 50, 60, 70, 80 and 95° C. The samples are then removed from the water bath, and the pH of the solution is adjusted to 10 with a 0.2 M Na2CO3 solution. The released para-nitrophenol is then measured with a calorimeter at 414 nm.
(§5) The activity of the lipase based on the incubation temperature was measured by using 2-hydroxy-4-p-nitrophenyl-butyl-decanoate and the para-nitrophenylbutyrate commercial substrate. […] The activities are expressed in %. The enzymatic reactions were carried out in the PIPES buffer (0.1 M, pH 7) at 50, 60, 70, 80 and 95° C. for 40 minutes. A negative control without enzyme was also carried out by using the same experimental conditions.

The nature of data set [2]: negative control without enzyme, temperature series (para-nitrophenol released from the substrate). Format: physicochemical. The settings on record: PIPES buffer 0.1 M pH 7, 40 minutes, no enzyme. As for the experimental part:
as §3
A negative control without enzyme was carried out under the same experimental conditions.
as §4, §5

The target in data set [3] is T1, Candida antarctica lipase. Briefly: Candida antarctica lipase activity based on the pH of the solution (release of para-nitrophenol, 414 nm). Particulars: 40 minutes. Format: biochemical. On the procedure:
as §1, §2
The enzymatic activity of the Candida antarctica lipase was carried out at different pH levels by using buffers (100 mmol) listed in Table VII below.
74 μl of buffer at the desired pH (100 mmol) and 10 μl of a lipase solution at 0.01 mg/ml are added to 13.6 μmol of 2-hydroxy-4-p-nitrophenyl-butyl-decanoate. The reaction is incubated in a water bath for 40 minutes at 60° C. The samples are then removed from the water bath. Then, 40 μl of NaIO4 (100 mmol) and 4 μl of BSA (50 mg/ml) are added to the mixture. The pH of the solution is then adjusted to 10 by adding 40 μl of a solution of Na2CO3 at 0.2 M. The para-nitrophenol that is released is then measured with a calorimeter at 414 nm.
(§6) 74 μl of buffer at the desired pH (100 mmol) and 10 μl of a lipase solution at 0.01 mg/ml are added to 13.6 μmol of para-nitrophenylbutyrate. The reaction is incubated in a water bath for 40 minutes at 60° C. The samples are then removed from the water bath, and the pH of the solution is adjusted to 10 with a 0.2 M Na2CO3 solution. The para-nitrophenol that is released is then measured with a colorimeter at 414 nm.
(§7) The hydrolytic activity of the lipase based on the pH of the solution was also measured. […] The activities are expressed in %. The enzymatic reactions were incubated at 60° C. for 40 minutes at pH 3, 4, 5, 6.5, 7 and 8. A negative control without enzyme was also carried out by using the same experimental conditions.

Data set [4] in a line: negative control without enzyme, pH series (para-nitrophenol released from the substrate). Particulars: 40 minutes, no enzyme. Format: physicochemical. On the procedure: as §6, §7
Data set [5] can be described thus: stability of the substrates / oxidation by periodate in the presence of BSA. Format: physicochemical. Particulars: aqueous media. An excerpt:
The oxidation of 1,2 diols and amino alcohols by periodate in an aqueous medium is a reaction that is well known to one skilled in the art. This reaction provides a purely chemical alternative for the conversion of alcohols into carbonyl groups in aqueous medium with a high chemoselectivity in the presence of other functional groups.
The substrates acetates 1, amide 5 and epoxide 6 are stable in the presence of periodate and BSA […] the aqueous media. […] Under optimized reaction conditions using 100 μm of substrate, 1 mmol of sodium periodate, 2 mg/ml of BSA in a borate buffer with a pH of 8.8, diol 2 is transformed into umbelliferone with a yield of 72% without observable secondary reactions. […] The oxidation of amino alcohol 6 takes place with a yield of 85% under the same conditions.

T1 sequence (P41365 26-342): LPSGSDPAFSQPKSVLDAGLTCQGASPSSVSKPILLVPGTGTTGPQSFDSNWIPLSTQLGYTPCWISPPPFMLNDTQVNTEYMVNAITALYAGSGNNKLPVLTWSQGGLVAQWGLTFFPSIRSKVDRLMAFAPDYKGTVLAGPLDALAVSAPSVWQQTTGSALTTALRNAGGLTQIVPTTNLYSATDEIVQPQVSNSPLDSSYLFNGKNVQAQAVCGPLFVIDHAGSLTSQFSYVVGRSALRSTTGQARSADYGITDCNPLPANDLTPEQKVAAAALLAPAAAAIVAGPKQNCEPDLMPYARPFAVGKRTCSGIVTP

As for `CCCC(=O)Oc1ccc([N+](=O)[O-])cc1` [p-Nitrophenylbutyrate, p-nitro-phenylbutyrate, reference compound], the “activity of the Candida antarctica lipase (Lipase B)” value (shortened to “activity … (Lipase B)”) is given as 100% in data set [1] (50° C.); 75.4% in data set [1] (60° C.); 60.4% in data set [1] (70° C.); 55.9% in data set [1] (80° C.); 66.7% in data set [1] (95° C.); 94.2% in data set [3] (pH 3, 60° C.). The “activity … (Lipase B)” value in data set [3] (pH 4, 60° C.) is 73%; in data set [3] (pH 5, 60° C.), 100%; in data set [3] (pH 6.5, 60° C.), 79.5%; in data set [3] (pH 7, 60° C.), 60.8%; in data set [3] (pH 8, 60° C.), 103.9%. Further, the “activity signal Without enzyme” value in data set [2] (50° C.) amounted to 83.6%; in data set [2] (60° C.), 67.3%; in data set [2] (70° C.), 59.5%; in data set [2] (80° C.), 59.8%; in data set [2] (95° C.), 71.5%; in data set [4] (pH 3, 60° C.) it was 54.9%. For the same compound, the “activity signal Without enzyme” value in data set [4] (pH 4, 60° C.) came out at 63.6%; in data set [4] (pH 5, 60° C.) it was 65.6%; in data set [4] (pH 6.5, 60° C.), 69.2%; in data set [4] (pH 7, 60° C.) it was 51.4%; in data set [4] (pH 8, 60° C.), 103.9%.
Turning to `O=c1ccc2ccc(OCC[C@H](O)CO)cc2o1` [diol 2, (S)-4-(7-coumarinyloxy)-1,2-butanediol], the “stability in the presence of periodate and BSA” value in data set [5] was “release umbelliferone”.
On the same count and under the same terms, under `O=c1ccc2ccc(OCC[C@H]3CO3)cc2o1` [epoxide 6, (S)-4-(7-coumarinyloxy)-1,2-epoxybutane] stands “stable”; under `NCC(O)CCOc1ccc2ccc(=O)oc2c1` (stereo not drawn) [amino alcohol 6, 1-Amino-4-(7-coumarinyloxy)-2-butanol], “release umbelliferone”.
As to `O=C(Cc1ccccc1)NCC(O)CCOc1ccc2ccc(=O)oc2c1` (stereo not drawn) [amide 5, 1-Phenylacetamido-4-(7-coumarinyloxy)-2-butanol], the “stability in the presence of periodate and BSA” value in data set [5] is “stable”.
Take `CCCCCCCCCC(=O)OCC(O)CCc1ccc([N+](=O)[O-])cc1` (stereo not drawn) [2-hydroxy-4-p-nitrophenyl-butyl-decanoate]: the “activity … (Lipase B)” value was 100% in data set [1] (50° C.); 75.9% in data set [1] (60° C.); 61.5% in data set [1] (70° C.); 44.2% in data set [1] (80° C.); 26.1% in data set [1] (95° C.); 58.9% in data set [3] (pH 3, 60° C.). The “activity … (Lipase B)” value in data set [3] (pH 4, 60° C.) is recorded as 80.9%; in data set [3] (pH 5, 60° C.), 96.1%; in data set [3] (pH 6.5, 60° C.), 100%; in data set [3] (pH 7, 60° C.), 72%; in data set [3] (pH 8, 60° C.), 40%. In addition, the “activity signal Without enzyme” value in data set [2] (50° C.) turned out to be 8.7%; in data set [2] (60° C.), 9.4%; in data set [2] (70° C.), 9.5%; in data set [2] (80° C.), 8.1%; in data set [2] (95° C.), 8.6%; in data set [4] (pH 3, 60° C.), 3.9%. For the same compound, the “activity signal Without enzyme” value in data set [4] (pH 4, 60° C.) is 2.7%; in data set [4] (pH 5, 60° C.), 2.6%; in data set [4] (pH 6.5, 60° C.) it was 2.9%; in data set [4] (pH 7, 60° C.) it was 3.4%; in data set [4] (pH 8, 60° C.) it was 2.8%.

Values taken from patent US20030199017A1, “Method for releasing a product comprising chemical oxidation, method for detecting said product and uses thereof” (Proteus, priority 2000, published 2003).
